This passage reports MIC results from patent US4426390A, “Novel β-lactam compounds, process for producing thereof, and use thereof as medicines” (Sanraku-Ocean Co., Ltd., priority 1980, dated 1984).

Values after ≈ are worked out from the molar mass of the structure shown. Like-named read-outs stand apart in the source and are kept apart here.

Holding throughout (assay): MIC by agar dilution method
Holding throughout (format): cell-based

Experiment [1] concerns Alcaligenes Faecolis A1. The procedure: (§1) The MIC is measured by an agar dilution method based on the standard method of the Japanese Society of Chemotherapy (Japanese Society of Chemotherapy: The Revised Method of Determination of MIC Values, Chemotherapy 22, 1126-1128, […]). Specifically, the antibiotic is serially diluted with a 1/50 M phosphate buffer at a pH of 7.3 to prepare a twofold dilution series. One milliliter of each dilution and 9 ml of an agar medium (Heart Infusion Agar; a product of Difco Laboratories) are mixed and allowed to solidify in a Petri dish having a diameter of 9 cm. One loopful of the stock culture of the test microbe is inoculated in trypto-soy buillon (a product of Eiken Kagaku Co., Ltd.) and incubated at 37° C. for 18 hours. The resulting culture broth is diluted to a concentration of about 10^6 cells/ml with physiological saline and inoculated on the agar plate by means of a microplanter.

The test system of experiment [2] is Bacillus subtillis ATCC 6633. The conditions noted are these: ATCC6633; Bacillus subtillis ATCC 6633; agar dilution, 37° C., 18 hours; read-out: MIC. The procedure: as §1
A general note: Agar dilution tests growth on a series of plates holding different concentrations.

Experiment [3] deals with Citrobacter Freundii GN346. The conditions noted are these: 37° C., 18 hours. The procedure: as §1
Experiment [4] concerns Comamonas terrigena B996. The conditions noted are these: 37° C., 18 hours. The procedure:
as §1

Experiment [5] deals with E. coli RGN823. The conditions noted are these: Escherichia coli, 37° C., 18 hours. As to the method:
as §1

Experiment [6] relates to Ent. cloacae 45. The settings on record: Enterobacter cloacae, 37° C., 18 hours. As to the method:
as §1

The test system of experiment [7] is Ent. sp. E8. As to the method:
as §1

The subject of experiment [8] is Enterobacter aerogenes E19. The conditions noted are these: Klebsiella aerogenes, 37° C., 18 hours. As to the method:
as §1

Experiment [9] concerns Escherichia coli K-12. As to the method: as §1
In experiment [10] the test system is Klebsiella pneumoniae K13. The conditions noted are these: 37° C., 18 hours. As to the method: as §1
The test system of experiment [11] is P. rettgeri P7. The settings on record: Providencia rettgeri. The procedure:
as §1

In experiment [12] the test system is P. sp. P22. The conditions noted are these: 37° C., 18 hours. As to the method: as §1
Experiment [13] relates to P. vulgaris GN76. The settings on record: Proteus vulgaris, 37° C., 18 hours. The procedure: as §1
The test system of experiment [14] is Proteus mirabilis P6. As to the method:
as §1

In experiment [15] the test system is Providencia sp. P8. As to the method:
as §1

The test system of experiment [16] is Ps. aeruginosa NCTC10490. The settings on record: Pseudomonas aeruginosa, 37° C., 18 hours. As to the method: as §1
The subject of experiment [17] is Pseudomonas aenginosa IFO3445. The settings on record: 37° C., 18 hours. As to the method: as §1
For experiment [18], the system named is S. aureus Russell. The settings on record: Staphylococcus aureus; S. aureus Russell; agar dilution, 37° C., 18 hours; read-out: MIC. The procedure:
as §1

Experiment [19] deals with S. aureus Smith. The conditions noted are these: Staphylococcus aureus, 37° C., 18 hours. As to the method:
as §1

The subject of experiment [20] is S. epidermidis. The settings on record: Staphylococcus epidermidis, 37° C., 18 hours. As to the method: as §1
For experiment [21], the system named is Sarcina lutea S19. The conditions noted are these: Micrococcus luteus, 37° C., 18 hours. As to the method:
as §1

In experiment [22] the test system is Ser. marcesceus T55. The conditions noted are these: 37° C., 18 hours. As to the method: as §1
Experiment [23] has as its system Serratia marcesceus S18. The conditions noted are these: 37° C., 18 hours. The procedure: as §1
Experiment [24] relates to Staphylococcus aureus 209P. The settings on record: 37° C., 18 hours. As to the method:
as §1

The term MIC denotes the least concentration at which growth counts as inhibited. Regarding `CC(O)[C@@H]1C(=O)N2C(C(=O)O)=C(SCCNC(=O)CCNC(=O)C(O)C(C)(C)CO)C[C@H]12` (relative stereo) [OA-6129B1], the MIC is 0.2 µg/mL (≈ 0.422 µM) in experiment [1] (Alcaligenes Faecolis A1, agar dilution, 37° C., 18 hours, read-out: MIC); 0.05 µg/mL (≈ 0.106 µM) in [2]; 6.25 µg/mL (≈ 13.2 µM) in experiment [3]; 0.012 µg/mL (≈ 0.0253 µM) in experiment [4]; 0.39 µg/mL (≈ 0.824 µM) in [5]; 6.25 µg/mL (≈ 13.2 µM) in experiment [6]. The minimum inhibitory concentration (MIC) in [7] (Ent. sp. E8, agar dilution, 37° C., 18 hours, read-out: MIC) is 0.39 µg/mL (≈ 0.824 µM); in [8], 3.13 µg/mL (≈ 6.61 µM); in [9] (K12, Escherichia coli K-12, agar dilution, 37° C., 18 hours, read-out: MIC), 0.39 µg/mL (≈ 0.824 µM); in experiment [10], more than 50 µg/mL; in experiment [11] (P. rettgeri P7, agar dilution, 37° C., 18 hours, read-out: MIC) it was 0.78 µg/mL (≈ 1.65 µM); in experiment [12], more than 50 µg/mL. Further, the MIC was 50 µg/mL (≈ 106 µM) in experiment [13]; 0.78 µg/mL (≈ 1.65 µM) in [14] (Proteus mirabilis P6, agar dilution, 37° C., 18 hours, read-out: MIC); 0.2 µg/mL (≈ 0.422 µM) in experiment [15] (Providencia sp. P8, agar dilution, 37° C., 18 hours, read-out: MIC); more than 50 µg/mL in experiment [16]; more than 50 µg/mL in [17]; 0.78 µg/mL (≈ 1.65 µM) in experiment [18]. Moreover, the MIC in experiment [19] worked out at 1.56 µg/mL (≈ 3.29 µM); in experiment [20] it was 0.78 µg/mL (≈ 1.65 µM); in experiment [21], 0.1 µg/mL (≈ 0.211 µM); in experiment [22], 12.5 µg/mL (≈ 26.4 µM); in experiment [23], 6.25 µg/mL (≈ 13.2 µM); in experiment [24] it was 0.1 µg/mL (≈ 0.211 µM).

With `Cc1nnc(SCC2=C(C(=O)O)N3C(=O)[C@@H](NC(=O)Cn4cnnn4)[C@H]3SC2)s1` [CEZ, reference compound], the minimal inhibitory concentration (MIC) is 3.13 µg/mL (≈ 6.89 µM) in [1] (Alcaligenes, 18 h); 0.1 µg/mL (≈ 0.22 µM) in experiment [2]; more than 400 µg/mL in [3]; 0.05 µg/mL (≈ 0.11 µM) in [4]; 1.56 µg/mL (≈ 3.43 µM) in [5]; more than 400 µg/mL in experiment [6]. In addition, the MIC is 3.13 µg/mL (≈ 6.89 µM) in [7] (18 h); more than 400 µg/mL in experiment [8]; 0.78 µg/mL (≈ 1.72 µM) in [9] (Escherichia coli, K12, 18 h); 25 µg/mL (≈ 55 µM) in [10]; 3.13 µg/mL (≈ 6.89 µM) in experiment [11] (P7, 18 h); more than 400 µg/mL in experiment [12]. The minimal inhibitory concentration (MIC) was more than 400 µg/mL in [13]; 3.13 µg/mL (≈ 6.89 µM) in experiment [14] (Proteus mirabilis, P6, 18 h); 1.56 µg/mL (≈ 3.43 µM) in experiment [15] (Providencia, SP.P8, 18 h); more than 400 µg/mL in [16]; more than 400 µg/mL in experiment [17]; 0.2 µg/mL (≈ 0.44 µM) in [18]. Further, the minimum inhibitory concentration (MIC) in [19] was 0.2 µg/mL (≈ 0.44 µM); in experiment [20], 0.2 µg/mL (≈ 0.44 µM); in experiment [21], 0.39 µg/mL (≈ 0.858 µM); in experiment [22], more than 400 µg/mL; in experiment [23], more than 400 µg/mL; in experiment [24], 0.1 µg/mL (≈ 0.22 µM).
